Results published in ChEMBL document CHEMBL1201862, “PubChem BioAssay data set” (2004).
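Method: 48-hour compound exposure of cells in 96-well plates, five concentrations, linear interpolation of endpoints. GI50: concentration for 50% inhibition of growth.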 Activity calls are given as the source filed them. No stated cut-off is given here; in the data, active = GI50 up to about 1.1 µM and inactive = higher.

Tests used:
Test in all cases: growth of human tumour cells (NCI), 48 h
A498 = system: A498
ACHN = system: ACHN
CAKI-1 = system: CAKI-1
COLO 205 = system: COLO 205
EKVX = system: EKVX
HCT-116 = system: HCT-116
HOP-92 = system: HOP-92
HT-29 = system: HT-29
Hs-578T = system: Hs-578T
KM12 = system: KM12
M14 = system: M14
MDA-MB-435 = system: MDA-MB-435
MDA-N = system: MDA-N
NCI-H23 = system: NCI-H23
NCI-H460 = system: NCI-H460
RXF 393 = system: RXF 393
SF-268 = system: SF-268
SNB-19 = system: SNB-19
SR = system: SR
TK-10 = system: TK-10

Structure (SMILES)	GI50 (A498)	GI50 (ACHN)	GI50 (CAKI-1)	GI50 (COLO 205)	GI50 (EKVX)	GI50 (HCT-116)	GI50 (HOP-92)	GI50 (HT-29)	GI50 (Hs-578T)	GI50 (KM12)	GI50 (M14)	GI50 (MDA-MB-435)	GI50 (MDA-N)	GI50 (NCI-H23)	GI50 (NCI-H460)	GI50 (RXF 393)	GI50 (SF-268)	GI50 (SNB-19)	GI50 (SR)	GI50 (TK-10)
O=C1O/C(=C\c2ccccc2)N(c2ccccc2)C1=O	> 100 µM (inactive)	> 100 µM (inactive)	> 100 µM (inactive)	> 100 µM (inactive)	> 100 µM (inactive)	> 100 µM (inactive)	> 100 µM (inactive)	> 100 µM (inactive)	> 100 µM (inactive)	> 100 µM (inactive)	> 100 µM (inactive)	> 100 µM (inactive)	> 100 µM (inactive)	> 100 µM (inactive)	> 100 µM (inactive)	> 100 µM (inactive)	> 100 µM (inactive)	> 100 µM (inactive)	> 100 µM (inactive)	> 100 µM (inactive)
COC(C)(C)CCc1[nH]c2ccccc2c1CC(=O)NCCc1cncn1C	34.3 µM (inactive)	> 100 µM (inactive)	> 100 µM (inactive)	> 100 µM (inactive)	> 100 µM (inactive)	> 100 µM (inactive)	> 100 µM (inactive)	> 100 µM (inactive)	> 100 µM (inactive)	> 100 µM (inactive)	> 100 µM (inactive)	> 100 µM (inactive)	> 100 µM (inactive)	> 100 µM (inactive)	> 100 µM (inactive)	> 100 µM (inactive)	> 100 µM (inactive)	> 100 µM (inactive)	> 100 µM (inactive)	> 100 µM (inactive)
N#CC1=C(N)C(C#N)(C#N)C(c2ccc(F)cc2)C=C1C1CC1 (stereo not given)	11.4 µM (inactive)	12.9 µM (inactive)	15 µM (inactive)	12.4 µM (inactive)	17.6 µM (inactive)	4.01 µM (inactive)	11.9 µM (inactive)	6.12 µM (inactive)	16.5 µM (inactive)	4.14 µM (inactive)	4.21 µM (inactive)	3.22 µM (inactive)	2.27 µM (inactive)	4.22 µM (inactive)	5.2 µM (inactive)	5.96 µM (inactive)	4.81 µM (inactive)	13.2 µM (inactive)	3.27 µM (inactive)	15.5 µM (inactive)
CCOC(=O)C1=CN/C(=C(/C)C(=O)OC)SC1C(=O)OCC (stereo not given)	> 100 µM (inactive)	> 100 µM (inactive)	> 100 µM (inactive)	> 100 µM (inactive)	> 100 µM (inactive)	> 100 µM (inactive)	> 76.9 µM (inactive)	> 100 µM (inactive)	> 100 µM (inactive)	> 100 µM (inactive)	> 100 µM (inactive)	> 100 µM (inactive)	> 100 µM (inactive)	> 100 µM (inactive)	> 90.4 µM (inactive)	> 100 µM (inactive)	> 100 µM (inactive)	98.2 µM (inactive)	47.8 µM (inactive)	> 92.9 µM (inactive)
COCCCNc1c2ccccc2nc2ccccc12	3.97 µM (inactive)	0.813 µM (active)	1.39 µM (inactive)	2.11 µM (inactive)	3.59 µM (inactive)	2.59 µM (inactive)	3.58 µM (inactive)	2.82 µM (inactive)	2.78 µM (inactive)	4.39 µM (inactive)	2.01 µM (inactive)	3.85 µM (inactive)	3.09 µM (inactive)	2.92 µM (inactive)	1.54 µM (inactive)	3.35 µM (inactive)	3.75 µM (inactive)	3.09 µM (inactive)	2.86 µM (inactive)	5.62 µM (inactive)
C[C@]12C[C@H](O)[C@H]3[C@@H](CCC4=CC(=O)CC[C@@]43C)[C@@H]1CC[C@@H]2c1csc(-c2ccccc2)n1	> 39 µM (inactive)	> 50.6 µM (inactive)	38.4 µM (inactive)	> 28 µM (inactive)	21 µM (inactive)	> 100 µM (inactive)	27.8 µM (inactive)	> 30.3 µM (inactive)	30.1 µM (inactive)	> 46.7 µM (inactive)	> 92.7 µM (inactive)	> 46.3 µM (inactive)	> 80.7 µM (inactive)	4.57 µM (inactive)	5.85 µM (inactive)	72.4 µM (inactive)	> 53.8 µM (inactive)	29.6 µM (inactive)	3.21 µM (inactive)	26.1 µM (inactive)
CN(C)c1ccc(C2ON=C(c3ccccc3)N2C23CC4CC(CC(C4)C2)C3)cc1 (stereo not given)	> 10 µM (inactive)	> 10 µM (inactive)	> 10 µM (inactive)	> 10 µM (inactive)	> 10 µM (inactive)	> 10 µM (inactive)	> 10 µM (inactive)	> 10 µM (inactive)	> 10 µM (inactive)	> 10 µM (inactive)	> 10 µM (inactive)	> 10 µM (inactive)	> 10 µM (inactive)	> 10 µM (inactive)	> 10 µM (inactive)	> 10 µM (inactive)	> 10 µM (inactive)	> 10 µM (inactive)	8.02 µM (inactive)	> 10 µM (inactive)
C=C1C(=O)OC2CC(C)C3C=CC(=O)C3CC12 (stereo not given)	11.5 µM (inactive)	3.08 µM (inactive)	2.17 µM (inactive)	1.52 µM (inactive)	12.1 µM (inactive)	1.26 µM (inactive)	1.88 µM (inactive)	1.72 µM (inactive)	1.85 µM (inactive)	5.64 µM (inactive)	1.62 µM (inactive)	3.31 µM (inactive)	2.07 µM (inactive)	1.83 µM (inactive)	2.96 µM (inactive)	1.53 µM (inactive)	2.55 µM (inactive)	15.4 µM (inactive)	0.824 µM (active)	3.16 µM (inactive)
O=c1[nH]nc(Cc2ccccc2)n1/N=C/c1cccnc1	> 100 µM (inactive)	> 100 µM (inactive)	12.4 µM (inactive)	> 100 µM (inactive)	> 100 µM (inactive)	> 100 µM (inactive)	> 100 µM (inactive)	> 100 µM (inactive)	> 100 µM (inactive)	27.3 µM (inactive)	> 100 µM (inactive)	> 100 µM (inactive)	> 100 µM (inactive)	> 100 µM (inactive)	> 100 µM (inactive)	> 100 µM (inactive)	> 100 µM (inactive)	> 100 µM (inactive)	> 100 µM (inactive)	> 100 µM (inactive)
COc1cc2c(cc1OC)C1(c3ccccc3)CN(C2)Cc2cc(OC)c(OC)cc21	35.2 µM (inactive)	54.1 µM (inactive)	40 µM (inactive)	17.1 µM (inactive)	55.5 µM (inactive)	24.9 µM (inactive)	32.6 µM (inactive)	29 µM (inactive)	27.5 µM (inactive)	30.8 µM (inactive)	23.9 µM (inactive)	14.5 µM (inactive)	> 100 µM (inactive)	24.5 µM (inactive)	30.2 µM (inactive)	22.8 µM (inactive)	49.9 µM (inactive)	44.5 µM (inactive)	5.3 µM (inactive)	44.7 µM (inactive)
NC(=O)CCSC(CC(=O)c1ccc(Cl)cc1)c1ccc(Cl)cc1 (stereo not given)	22.5 µM (inactive)	34.7 µM (inactive)	12.4 µM (inactive)	33 µM (inactive)	28.2 µM (inactive)	14.7 µM (inactive)	15 µM (inactive)	19.9 µM (inactive)	46.5 µM (inactive)	6.11 µM (inactive)	27.2 µM (inactive)	16 µM (inactive)	16.7 µM (inactive)	32.4 µM (inactive)	35.9 µM (inactive)	17.9 µM (inactive)	27.8 µM (inactive)	32.5 µM (inactive)	4.06 µM (inactive)	48 µM (inactive)
CCCCCCc1ccc(C(=O)NO)cc1	29.2 µM (inactive)	22.9 µM (inactive)	28.1 µM (inactive)	41.5 µM (inactive)	37.8 µM (inactive)	29.6 µM (inactive)	48 µM (inactive)	36 µM (inactive)	> 100 µM (inactive)	44.9 µM (inactive)	35.1 µM (inactive)	53.5 µM (inactive)	45.6 µM (inactive)	28.3 µM (inactive)	25 µM (inactive)	41.2 µM (inactive)	25.3 µM (inactive)	45.3 µM (inactive)	9.98 µM (inactive)	51.5 µM (inactive)
COC(=O)C1[C@H](C(=O)OC)C1(Br)CBr (stereo not given in full)	> 100 µM (inactive)	> 100 µM (inactive)	> 100 µM (inactive)	> 100 µM (inactive)	> 100 µM (inactive)	> 100 µM (inactive)	> 100 µM (inactive)	> 100 µM (inactive)	> 100 µM (inactive)	> 100 µM (inactive)	> 100 µM (inactive)	> 100 µM (inactive)	> 100 µM (inactive)	> 100 µM (inactive)	> 100 µM (inactive)	> 100 µM (inactive)	> 100 µM (inactive)	> 100 µM (inactive)	> 100 µM (inactive)	> 100 µM (inactive)
Nc1ncnc2c1nc(-c1ccccc1)n2C1OC(CO)C(O)C1O (stereo not given)	> 100 µM (inactive)	> 100 µM (inactive)	> 100 µM (inactive)	> 100 µM (inactive)	> 100 µM (inactive)	> 100 µM (inactive)	> 100 µM (inactive)	> 100 µM (inactive)	> 100 µM (inactive)	86.7 µM (inactive)	> 100 µM (inactive)	> 100 µM (inactive)	> 100 µM (inactive)	> 100 µM (inactive)	> 100 µM (inactive)	> 100 µM (inactive)	> 100 µM (inactive)	> 100 µM (inactive)	> 100 µM (inactive)	> 100 µM (inactive)
